Columns and labels:
5-HT2C receptor = target: T1, 5-HT2C receptor (Homo sapiens, UniProt P28335); assay: Human 5-HT2C functional assay (beta-arrestin2 recruitment, U2OS_HTR2C_β-Arrestin cells); assay type: cell-based; details: compounds used as acid addition salts; for EC50: U2OS_HTR2C_β-Arrestin cells, 1.5 h incubation, read-out: EC50 5-HT2C (potency in functional assay); for Emax: relative efficacy vs response to 10 µM 5-HT or maximal effect of 5-HT (100%)
T1 construct: host or cells: U2OS
Protocol: The functional activity of compounds of formula I was assayed by incubation with U2OS_HTR2C_β-Arrestin cells (DiscoverX, 93-0289C3) to induce beta-arrestin2 recruitment to the 5-HT2C receptor. The agonist-induced recruitment and proximity of the receptor and beta-arrestin2 leads to complementation and formation of active β-galactosidase. The enzyme complementation results in enzyme activity, which is measured following the termination of the agonist incubation using DiscoveRx's detection reagent, which contains a chemiluminescent substrate which produces a high intensity signal. Cells were plated and a medium-change to a 1% serum containing medium was performed 24 h later. The next day, test compounds were added and incubated for 1.5 h before addition of detection reagent.
The response produced was measured and compared with the response produced by 10 [mu]M 5-HT or the maximal effect induced by 5-HT (defined as 100%) to which it was expressed as a percentage response (relative efficacy). Dose response curves were con-structed using Graphpad Prism (Graph Software Inc.) or using in house adapted software using a 4 parameter dose response model with variable slope (fit=(Bottom+(Top−Bottom)/(1+10^((LogEC50−x)*Hill Slope))res=(y−fit)). Results are compiled in the table below.

[1] = Metabolic stability: unbound intrinsic clearance in liver microsomes; assay type: in vitro ADME; details: rat; liver microsomes 0.25 mg protein/mL, 0.5 μM compound, pH 7.4, 37° C.; Cl int unbound=Cl int/fu mic; compounds used as acid addition salts; read-out: Cl int, mic unb. (r) (unbound intrinsic clearance)
Protocol: Samples of the tested compounds (0.5 μM) were preincubated together with rat liver microsomes (0.25 mg of microsomal protein/mL) in 0.05 M potassium phosphate buffer of pH 7.4 in microtiter plates at 37° C. for 5 minutes. The reaction was started by adding NADPH (1.0 mM). After 0, 5, 10, 15, 20 and 30 minutes, an aliquot was removed, the reaction was cooled and stopped by adding twice the amount of quench solution consisting of acetonitrile/methanol 1:1, and containing […] carbutamide as internal standard. The samples were frozen until analyzed. The remaining concentration of undegraded test substance was determined by liquid chromatography-tandem mass spectrometry (LC-MS/MS). The half-life (t1/2) was determined from the gradient of the ratio of the signal of (test substance/internal standard)/unit time plot, allowing the calculation of the half-life of the test substance, assuming first order kinetics, from the decrease in the concentration of the compound with time. The microsomal clearance (mClint) was calculated as follows: mClint=((ln(2)/t 1/2)/Microsomal Protein Concentration (mg/ml))*1000, leading to the unit of uL/min/mg. The scaled clearance (mClin_scaled) was calculated as mCLint_scaled=m CLint*(Microsomal Yield (mg/kg BW))/1000000*60, leading to the units L/h/kg. The Microsomal Yield is defined by the specifics of the used microsomes. Calculations were modified from refer-ences: Di, The Society for Biomolecular Screening, 2003, 453-462; Obach, D M D, 1999 vol 27. N 11, 1350-1359.
A suspension of 0.25 mg/ml microsomal protein spiked with 0.5 μM of test compound was pipetted on one side of a HTDialysis device (HTDialysis LLC,37 Ledgewood Drive, Gales Fery Conn. 06335) separated by a membrane with a MWcut off 12-14 K. 50 mM K-Phosphate buffer (pH 7.4) was added on the other side of the well. After incubation at 37° C. for 4 h while shaking at 150 rpm, aliquots of both sides were taken, quenched with MeOH/ACN 1:1 and 0.2 μM of internal standard and frozen until analy-sis by LCMSMS.
Cl int unbound=Cl int/fu mic
The compounds were used in form of their respective acid addition salts.

T1 sequence (P28335 33-458): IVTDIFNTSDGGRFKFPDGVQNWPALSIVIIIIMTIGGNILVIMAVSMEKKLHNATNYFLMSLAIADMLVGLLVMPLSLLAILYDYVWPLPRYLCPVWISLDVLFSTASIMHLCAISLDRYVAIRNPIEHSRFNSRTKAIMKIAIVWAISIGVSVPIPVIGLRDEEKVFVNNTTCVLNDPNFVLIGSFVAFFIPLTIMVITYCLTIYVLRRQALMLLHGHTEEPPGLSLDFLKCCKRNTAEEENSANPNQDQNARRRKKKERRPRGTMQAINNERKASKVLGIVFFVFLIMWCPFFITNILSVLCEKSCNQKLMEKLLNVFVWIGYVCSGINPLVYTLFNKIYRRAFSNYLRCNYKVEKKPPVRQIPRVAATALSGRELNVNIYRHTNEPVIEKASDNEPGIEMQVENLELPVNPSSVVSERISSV
T1 sequence (P32121 whole entry partner): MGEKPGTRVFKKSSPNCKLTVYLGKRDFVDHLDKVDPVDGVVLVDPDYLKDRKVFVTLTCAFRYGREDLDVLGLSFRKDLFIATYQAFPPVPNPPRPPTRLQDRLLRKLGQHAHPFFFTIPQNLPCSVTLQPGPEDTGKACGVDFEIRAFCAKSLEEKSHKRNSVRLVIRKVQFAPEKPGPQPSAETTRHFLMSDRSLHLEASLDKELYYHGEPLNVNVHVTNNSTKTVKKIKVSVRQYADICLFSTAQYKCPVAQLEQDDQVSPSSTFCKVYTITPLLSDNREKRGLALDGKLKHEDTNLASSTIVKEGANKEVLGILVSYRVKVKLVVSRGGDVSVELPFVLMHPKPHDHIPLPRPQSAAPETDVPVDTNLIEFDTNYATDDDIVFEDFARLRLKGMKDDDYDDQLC

| Structure (SMILES) | EC50 (5-HT2C receptor) | Emax (5-HT2C receptor) | CLint scaled at 0.5 μM [1] |
| --- | --- | --- | --- |
| COc1cc(O[C@H]2CC[C@@H](C(F)(F)F)CC2)c(F)cc1CNC(=O)[C@@H]1CCCN1 [Example 34, (S)—N-(5-Fluoro-4-((cis-4-trifluoromethyl-cyclohexyl)oxy)-2-methoxybenzyl)-pyrrolidine-2-carboxamide] | 0.005 to 0.015 µM | > 70% | 1330 to 4170 mL/min/kg |
| COc1cc(OC2CCC(CF)CC2)c(F)cc1CNC(=O)[C@@H]1CCCN1 (stereo partly drawn) [Example 43, (2S)—N-[[5-Fluoro-4-[4-(fluoromethyl)cyclohexoxy]-2-methoxy-phenyl]methyl]-pyrrolidine-2-carboxamide] | 0.015 to 0.03 µM | > 70% | < 500 mL/min/kg |
| COc1cc(OCCCC(F)(F)F)c(F)cc1CNC(=O)[C@@H]1CCCN1 [Example 23, (2S)—N-[[5-Fluoro-2-methoxy-4-(4,4,4-trifluorobutoxy)phenyl]methyl]pyrrolidine-2-carboxamide] | < 0.005 µM | > 70% | < 500 mL/min/kg |
| COc1cc(OCC2CC2(F)F)c(F)cc1CNC(=O)[C@@H]1CCCN1 (stereo partly drawn) [Example 26, (2S)—N-[[4-[(2,2-Difluorocyclopropyl)methoxy]-5-fluoro-2-methoxy-phenyl]-methyl]pyrrolidine-2-carboxamide] | 0.015 to 0.03 µM | > 70% | < 500 mL/min/kg |
| COc1cc(OC2CC(F)(F)C2)c(F)cc1CNC(=O)[C@@H]1CCCN1 [Example 28, (2S)—N-[[4-(3,3-Difluorocyclobutoxy)-5-fluoro-2-methoxy-phenyl]methyl]-pyrrolidine-2-carboxamide] | 0.005 to 0.015 µM | > 70% | < 500 mL/min/kg |
| COc1cc(OCCC(F)(F)C(F)(F)F)c(F)cc1CNC(=O)[C@@H]1CCCN1 [Example 24, (2S)—N-[[5-Fluoro-2-methoxy-4-(3,3,4,4,4-pentafluorobutoxy)phenyl]methyl]-pyrrolidine-2-carboxamide] | 0.005 to 0.015 µM | > 70% | < 500 mL/min/kg |
| COc1cc(OCCc2ccc(F)cc2)c(F)cc1CNC(=O)[C@@H]1CCCN1 [Example 11, (2S)—N-[[5-Fluoro-4-[2-(4-fluorophenyl)ethoxy]-2-methoxy-phenyl]methyl]-pyrrolidine-2-carboxamide] | 0.005 to 0.015 µM | > 70% | 1330 to 4170 mL/min/kg |
| COc1cc(OCC2CC(F)(F)C2)c(F)cc1CNC(=O)[C@@H]1CCCN1 [Example 29, (2S)—N-[[4-[(3,3-Difluorocyclobutyl)methoxy]-5-fluoro-2-methoxy-phenyl]methyl]-pyrrolidine-2-carboxamide] | 0.005 to 0.015 µM | > 70% | < 500 mL/min/kg |
| COc1cc(O[C@H]2CC[C@H](C(F)(F)F)CC2)c(F)cc1CNC(=O)[C@@H]1CCCN1C [Example 39, (2S)—N-(5-Fluoro-2-methoxy-4-((trans-4-(trifluoromethyl)cyclohexyl)oxy)benzyl)-1-methyl-pyrrolidine-2-carboxamide] | 0.015 to 0.03 µM | > 70% | 500 to 1330 mL/min/kg |
| COc1cc(OCCc2cccc(F)c2)c(F)cc1CNC(=O)[C@@H]1CCCN1 [Example 12, (2S)—N-[[5-Fluoro-4-[2-(3-fluorophenyl)ethoxy]-2-methoxy-phenyl]methyl]-pyrrolidine-2-carboxamide] | 0.005 to 0.015 µM | > 70% | 1330 to 4170 mL/min/kg |
| COc1cc(OCC2(C(F)(F)F)CC2)c(F)cc1CNC(=O)[C@@H]1CCCN1 [Example 27, (2S)—N-[[5-Fluoro-2-methoxy-4-[[1-(trifluoromethyl)cyclopropyl]methoxy]phenyl]-methyl]pyrrolidine-2-carboxamide] | 0.005 to 0.015 µM | > 70% | 500 to 1330 mL/min/kg |
| COc1cc(OCC(F)(F)C(F)F)c(F)cc1CNC(=O)[C@@H]1CCCN1 [Example 20, (2S)—N-[[5-Fluoro-2-methoxy-4-(2,2,3,3-tetrafluoropropoxy)phenyl]methyl]-pyrrolidine-2-carboxamide] | < 0.005 µM | > 70% | < 500 mL/min/kg |
| COc1cc(OC(C)C(F)(F)C(F)F)c(F)cc1CNC(=O)[C@@H]1CCCN1 (stereo partly drawn) [Example 22, (2S)—N-[[5-Fluoro-2-methoxy-4-(2,2,3,3-tetrafluoro-1-methyl-propoxy)phenyl]-methyl]pyrrolidine-2-carboxamide] | 0.005 to 0.015 µM | > 70% | < 500 mL/min/kg |
| COc1cc(OC2CCC(F)(F)CC2)c(F)cc1CNC(=O)[C@@H]1CCCN1C [Example 40, (2S)—N-[[4-(4,4-Difluorocyclohexoxy)-5-fluoro-2-methoxy-phenyl]methyl]-1-methyl-pyrrolidine-2-carboxamide] | 0.015 to 0.03 µM | > 70% | 500 to 1330 mL/min/kg |
| COc1cc(OCc2c(F)ccc(F)c2Cl)c(F)cc1CNC(=O)[C@@H]1CCCN1 [Example 7, (2S)—N-[[4-[(2-Chloro-3,6-difluoro-phenyl)methoxy]-5-fluoro-2-methoxy-phenyl]-methyl]pyrrolidine-2-carboxamide] | 0.015 to 0.03 µM | > 70% | 1330 to 4170 mL/min/kg |
| COc1cc(OC2CCCC(C(F)(F)F)C2)c(F)cc1CNC(=O)[C@@H]1CCCN1 (stereo partly drawn) [Example 35, (2S)—N-[[5-Fluoro-2-methoxy-4-[3-(trifluoromethyl)cyclohexoxy]phenyl]methyl]-pyrrolidine-2-carboxamide] | < 0.005 µM | > 70% | 500 to 1330 mL/min/kg |
| COc1cc(O[C@H]2CC[C@@H](F)CC2)c(F)cc1CNC(=O)[C@@H]1CCCN1 [Example 16, (S)—N-(5-Fluoro-4-((cis-4-fluorocyclohexyl)oxy)-2-methoxybenzyl)pyrrolidine-2-carboxamide] | 0.015 to 0.03 µM | > 70% | < 500 mL/min/kg |
| COc1cc(OCC2CC(F)(F)C2(F)F)c(F)cc1CNC(=O)[C@@H]1CCCN1 (stereo partly drawn) [Example 30, (2S)—N-[[5-Fluoro-2-methoxy-4-[(2,2,3,3-tetrafluorocyclobutyl)methoxy]phenyl]-methyl]pyrrolidine-2-carboxamide] | < 0.005 µM | > 70% | < 500 mL/min/kg |
| COc1cc(OCCC(F)(F)F)c(F)cc1CNC(=O)[C@@H]1CCCN1 [Example 19, (2S)—N-[[5-Fluoro-2-methoxy-4-(3,3,3-trifluoropropoxy)phenyl]methyl]pyrrolidine-2-carboxamide] | 0.015 to 0.03 µM | > 70% | < 500 mL/min/kg |
| COc1cc(OCCc2ccccc2F)c(F)cc1CNC(=O)[C@@H]1CCCN1 [Example 13, (2S)—N-[[5-Fluoro-4-[2-(2-fluorophenyl)ethoxy]-2-methoxy-phenyl]methyl]-pyrrolidine-2-carboxamide] | < 0.005 µM | > 70% | 1330 to 4170 mL/min/kg |
| COc1cc(OCc2cccc(F)c2)c(F)cc1CNC(=O)[C@@H]1CCCN1 [Example 1, (2S)—N-[[5-Fluoro-4-[(3-fluorophenyl)methoxy]-2-methoxy-phenyl]methyl]-pyrrolidine-2-carboxamide] | < 0.005 µM | > 70% | 1330 to 4170 mL/min/kg |
| COc1cc(OCC2CCC(F)(F)C2)c(F)cc1CNC(=O)[C@@H]1CCCN1 (stereo partly drawn) [Example 31, (2S)—N-[[4-[(3,3-Difluorocyclopentyl)methoxy]-5-fluoro-2-methoxy-phenyl]methyl]-pyrrolidine-2-carboxamide] | 0.005 to 0.015 µM | > 70% | < 500 mL/min/kg |
| COc1cc(OC2CCC(F)(F)CC2)c(F)cc1CNC(=O)[C@@H]1CCCN1 [Example 18, (2S)—N-[[4-(4,4-Difluorocyclohexoxy)-5-fluoro-2-methoxy-phenyl]methyl]-pyrrolidine-2-carboxamide] | 0.005 to 0.015 µM | > 70% | < 500 mL/min/kg |
